US9725414B2, “Fungicidal N-bicycloalkyl and N-tricycloalkyl pyrazole-4-(thio)carboxamide derivatives” (priority 2011, dated 2017)
Like-named read-outs stand apart in the source and are kept apart here.

Key:
Sphaerotheca fuliginea = assay: Example B: in vivo preventive test on Sphaerotheca fuliginea (powdery mildew on cucurbits), gherkin plants; conditions: 500 ppm of active ingredient, grading 12 days after contamination
Method: In Vivo Preventive Test on Sphaerotheca fuliginea (Powdery Mildew on Cucurbits) […] Gherkin plants (“Vert petit de Paris” variety), sown in starter cups on a 50/50 peat soil-pozzolana substrate and grown at 24° C. are treated at the Z11 cotyledon stage by spraying with the active ingredient prepared as described above. Plants, used as controls, are treated with the mixture of acetone/tween/DMSO/water not containing the active material. After 24 hours, the plants are contaminated by spraying the cotyledons with an aqueous suspension of Sphaerotheca fuliginea spores (100 000 spores per mL). The spores are collected from infected plants.

[1] = log P by HPLC on reversed-phase column (C 18), EEC Directive 79831 Annex V.A8; format: physicochemical
Method: In table 1, the log P values were determined in accordance with EEC Directive 79831 Annex V.A8 by HPLC (High Performance Liquid Chromatography) on a reversed-phase column (C 18), using the method described below: Temperature: 40° C.; Mobile phases: 0.1% aqueous formic acid and acetonitrile; linear gradient from 10% acetonitrile to 90% acetonitrile. Calibration was carried out using unbranched alkan-2-ones (comprising 3 to 16 carbon atoms) with known log P values (determination of the log P values by the retention times using linear interpolation between two successive alkanones). lambda-max-values were determined using UV-spectra from 200 nm to 400 nm and the peak values of the chromatographic signals.

Alternaria solani = assay: Example C: in vivo preventive test on Alternaria solani (tomato); conditions: 500 ppm of active ingredient, evaluated 7 days after inoculation
Method: (§1) In Vivo Preventive Test on Alternaria solani (Tomato) Solvent: 49 parts by weight of N,N-dimethylformamide Emulsifier: 1 part by weight of alkylarylpolyglycolether To produce a suitable preparation of active compound, 1 part by weight of active compound is mixed with the stated amounts of solvent and emulsifier, and the concentrate is diluted with water to the desired concentration. To test for preventive activity, young plants are sprayed with the preparation of active compound at the stated rate of application. One day after this treatment, the plants are inoculated with an aqueous spore suspension of Alternaria solani. The plants remain for one day in an incubation cabinet at approximately 22° C. and a relative atmospheric humidity of 100%. Then the plants are placed in an incubation cabinet at approximately 20° C. and a relative atmospheric humidity of 96%.

Pyrenophora teres [2] = assay: Example E: in vivo preventive test on Pyrenophora teres (barley), DMF/emulsifier preparation; conditions: 500 ppm of active ingredient, evaluated 7-9 days after inoculation
Method: as §1, with “Pyrenophora teres (Barley)” for “Alternaria solani (Tomato)”, “alkylaryl polyglycol ether” for “alkylarylpolyglycolether”, “Pyrenophora teres.” for “Alternaria solani.”, “48 hours” for “one day”, “at” for “at approximately”, “100%.” for “100%. Then the plants are placed in an incubation cabinet at approximately 20° C. and a relative atmospheric humidity of 96%.”

Puccinia recondita = assay: Example M: in vivo preventive test on Puccinia recondita (brown rust on wheat); conditions: 500 ppm of active ingredient, grading 12 days after contamination
Method: In Vivo Preventive Test on Puccinia recondita (Brown Rust on Wheat) […] Wheat plants (“Scipion” variety), sown in starter cups on a 50/50 peat soil pozzolana substrate and grown at 22° C., are treated at the 1 leaf stage (10 cm height) by spraying with the active ingredient prepared as described above. Plants, used as controls, are treated with the mixture of acetone/tween/DMSO/water not containing the active material. After 24 hours, the plants are contaminated by spraying the leaves with an aqueous suspension of Puccinia recondite spores (100 000 spores per mL). The spores are collected from an infected plant and are suspended in water containing 2.5 mL/L of Tween 80 at 10%. […] Grading (% of efficacy) is carried out 12 days after the contamination, in comparison with the control plants.

Pyrenophora teres [3] = assay: Example F: in vivo preventive test on Pyrenophora teres (barley), acetone/tween/DMSO preparation; conditions: 500 ppm of active ingredient, barley, grading 14 days after contamination
Method: In Vivo Preventive Test on Pyrenophora teres (Barley) […] Barley plants (“Plaisant” variety), sown in starter cups on a 50/50 peat soil pozzolana substrate and grown at 22° C., are treated at the 1 leaf stage (10 cm height) by spraying with the active ingredient prepared as described above. Plants, used as controls, are treated with the mixture of acetone/tween/DMSO/water not containing the active material. After 24 hours, the plants are contaminated by spraying the leaves with an aqueous suspension of Pyrenophora teres spores (12 000 spores per mL). The spores are collected from a 12-day-old culture. […] Grading (% of efficacy) is carried out 14 days after the contamination, in comparison with the control plants.

Septoria tritici = assay: Example I: in vivo preventive test on Septoria tritici (wheat), acetone/tween/DMSO preparation; conditions: 500 ppm of active ingredient, grading 24 days after contamination
Method: In Vivo Preventive Test on Septoria tritici (Wheat) […] Wheat plants (“Scipion” variety), sown in starter cups on a 50/50 peat soil pozzolana substrate and grown at 22° C., are treated at the 1 leaf stage (10 cm height) by spraying with the active ingredient prepared as described above. Plants, used as controls, are treated with the mixture of acetone/tween/DMSO/water not containing the active material. After 24 hours, the plants are contaminated by spraying the leaves with an aqueous suspension of cryopreserved Septoria tritici spores (500 000 spores per mL). The contaminated wheat plants are incubated for 72 hours at 18° C. and at 100% relative humidity, and then for 21 days at 90% relative humidity. Grading (% of efficacy) is carried out 24 days after the contamination, in comparison with the control plants.

[4] = HPLC reversed-phase C 18, 40° C., 0.1% aqueous formic acid and acetonitrile gradient, several values = mixture of two or more isomers

SMILES | logP [1] | Efficacy (Alternaria solani) | Efficacy (Pyrenophora teres [2]) | other results
Cn1nc(C(F)F)c(C(=O)NC2CCCC3CCCCC32)c1Cl (mixture of isomers) [Example 30] | – | – | – | Efficacy (Sphaerotheca fuliginea): 100%
Cn1nc(C(F)F)c(C(=O)NC2C3(C)CCC(C3)C2(C)C)c1F (centres unmarked) [Example 40] | 3.70 | – | – | –
Cn1cc(C(=O)N(C2CC2)C2CCC3CCCC3C2)c(C(F)F)n1 (mixture of isomers) [Example 23] | – | 80% | 100% | Efficacy (Sphaerotheca fuliginea): 83%; Efficacy (Puccinia recondita): 81%
CC1CC(C)(C)C2CCCC(NC(=O)c3cn(C)nc3C(F)(F)F)C12 (centres unmarked) [Example 17] | 4.00 | 94% | 95% | –
Cn1nc(C(F)F)c(C(=O)N(CC2CCC3CCCC3C2)C2CC2)c1Cl (centres unmarked) [Example 64] | – | – | – | logP [1, 4]: 4.59; Efficacy (Sphaerotheca fuliginea): 89%; Efficacy (Pyrenophora teres [3]): 71%; Efficacy (Septoria tritici): 93%; Efficacy (Puccinia recondita): 94%
Cn1cc(C(=O)NC23CC4CC(CC(C4)C2)C3)c(C(F)F)n1 [Example 55] | 3.06 | – | – | –
CC1CC(C)(C)C2CCCC(NC(=O)c3c(C(F)F)nn(C)c3Cl)C12 (centres unmarked) [Example 16] | 4.49 | – | 100% | –
Cc1nn(C)c(F)c1C(=O)NC1CCCC2C1C(C)CC2(C)C (centres unmarked) [Example 15] | 3.76 | 89% | 100% | –
Cn1cc(C(=O)NC2(C#N)CC3CCC2C3)c(C(F)F)n1 (centres unmarked) [Example 44] | 1.97 | – | – | –
Cn1nc(C(F)F)c(C(=O)NCC2CCC3CC2C3(C)C)c1F (centres unmarked) [Example 84] | 3.62 | 95% | 100% | –
CC1C(CNC(=O)c2c(C(F)F)nn(C)c2Cl)CC2CC1C2(C)C (centres unmarked) [Example 80] | 4.25 | 100% | 100% | –
Cn1nc(C(F)F)c(C(=O)NC2(C#N)CC3CCC2C3)c1Cl (centres unmarked) [Example 43] | 2.34 | – | – | –
Cn1nc(C(F)F)c(C(=O)NCC23CC4CC(CC(C4)C2)C3)c1Cl [Example 88] | – | 100% | – | logP [1, 4]: 3.89
Cn1cc(C(=O)N(CC23CC4CC(CC(C4)C2)C3)C2CC2)c(C(F)F)n1 [Example 111] | 3.92 | – | – | –
Cn1nc(C(F)F)c(C(=O)N(CC2CCC3CCCC32)C2CC2)c1F (centres unmarked) [Example 58] | 3.96 | – | – | Efficacy (Pyrenophora teres [3]): 100%; Efficacy (Puccinia recondita): 98%
Cn1nc(C(F)F)c(C(=O)NC2CCC3CCCCC3C2)c1Cl (mixture of isomers) [Example 34] | – | 95% | 70% | –
CC1CC1N(C(=O)c1c(C(F)(F)F)nn(C)c1F)C(C)C1CC2CCC1C2 (centres unmarked) [Example 112] | 4.92 | – | – | –
Cn1nc(C(F)F)c(C(=O)N(CC23CC4CC(CC(C4)C2)C3)C2CC2)c1F [Example 109] | 4.49 | – | – | –
Cn1nc(C(F)F)c(C(=O)NCC23CC4CC(CC(C4)C2)C3)c1F [Example 89] | – | 95% | – | logP [1, 4]: 3.67
CC1C(CNC(=O)c2c(C(F)F)nn(C)c2F)CC2CC1C2(C)C (centres unmarked) [Example 81] | 3.99 | 100% | 100% | –

SMILES | logP [1] | Efficacy (Alternaria solani) | Efficacy (Pyrenophora teres [2]) | other results
Cn1cc(C(=O)NC2C3(C)CCC(C3)C2(C)C)c(C(F)F)n1 (centres unmarked) [Example 41] | 3.35 | – | – | –
Cn1nc(C(F)F)c(C(=O)N(C2CC2)C2CCC3CCCCC3C2)c1Cl (mixture of isomers) [Example 37] | – | 95% | 100% | –
COc1nn(C)c(F)c1C(=O)N(CC12CC3CC(CC(C3)C1)C2)C1CC1 [Example 110] | 4.04 | – | – | –
Cn1nc(C(F)F)c(C(=O)NC2(C#N)CC3CCC2C3)c1F (centres unmarked) [Example 45] | 2.16 | – | – | –
CC(NC(=O)c1c(C(F)F)nn(C)c1Cl)C12CC3CC(CC(C3)C1)C2 (centres unmarked) [Example 106] | 4.27 | 100% | 90% | –
CC(NC1CC1)C12CC3CC(CC(C3)C1)C2 (centres unmarked) [N-[1-(adamantan-1-yl)ethyl]cyclopropanamine] | – | – | – | chromatographic logP [1]: 5.82
Cn1cc(C(=O)N(C2CC2)C2CCCC3CCCCC32)c(C(F)F)n1 (mixture of isomers) [Example 33] | – | – | – | Efficacy (Sphaerotheca fuliginea): 94%; Efficacy (Pyrenophora teres [3]): 100%; Efficacy (Septoria tritici): 92%
Cn1nc(C(F)F)c(C(=O)NC2C3(C)CCC(C3)C2(C)C)c1Cl (centres unmarked) [Example 39] | 3.92 | – | – | –
CC1C(CN(C(=O)c2c(C(F)F)nn(C)c2Cl)C2CC2)CC2CC1C2(C)C (centres unmarked) [Example 79] | 4.82 | 94% | 100% | –
Cn1nc(C(F)F)c(C(=O)N(CC23CC4CC(CC(C4)C2)C3)C2CC2)c1Cl [Example 108] | 4.68 | – | – | –
Cn1cc(C(=O)NC2CCCC3CCCCC32)c(C(F)F)n1 (mixture of isomers) [Example 29] | – | – | – | Efficacy (Sphaerotheca fuliginea): 95%
Cn1cc(C(=O)NCC23CC4CC(CC(C4)C2)C3)c(C(F)F)n1 [Example 87] | 3.29 | – | – | Efficacy (Sphaerotheca fuliginea): 79%; Efficacy (Puccinia recondita): 75%
Cn1nc(C(F)F)c(C(=S)N(C2CC2)C2CCC3CCCC3C2)c1F (centres unmarked) [Example 24] | 4.90 | – | 95% | –
Cn1cc(C(=O)N(C2CC2)C2CCC3CCCCC3C2)c(C(F)F)n1 (mixture of isomers) [Example 36] | – | 95% | 100% | –
CC(NC(=O)c1c(C(F)F)nn(C)c1F)C12CC3CC(CC(C3)C1)C2 (centres unmarked) [Example 107] | 4.03 | 95% | 80% | –
Cn1nc(C(F)F)c(C(=O)NC2CCC3CCCCC3C2)c1F (mixture of isomers) [Example 35] | – | 80% | – | –
CC(C)N(C(=O)c1c(C(F)F)nn(C)c1Cl)C1CCCC2CCCCC21 (centres unmarked) [Example 26] | 4.83 | – | – | –
Cn1nc(C(F)F)c(C(=S)NC2CCCC3CCCCC32)c1F (centres unmarked) [Example 28] | 4.41 | 70% | 95% | –
CC(C)N(C(=O)c1c(C(F)F)nn(C)c1F)C1CCCC2CCCCC21 (centres unmarked) [Example 27] | 4.58 | – | – | –
